Measured values published in patent US11242334B2, “Heterocyclic compounds as kinase inhibitors, compositions comprising the heterocyclic compound, and methods of use thereof” (JS INNOPHARM (SHANGHAI) LTD, priority 2017, dated 2022).

Assays:
human ERK2 = target: T1, human ERK2 (Homo sapiens, UniProt P28482); assay: LanthaScreen TR-FRET enzymatic assay, ERK2; conditions: IC50 values of ERK2 biochemical activity; 5 μM ATP, 400 nM ATF2-GFP substrate
T1 construct: recombinantly expressed as GST-tagged full-length protein purified from E. coli; GST; purchased Invitrogen PV3311; host or cells: E. coli
T1 sequence (P28482 whole entry): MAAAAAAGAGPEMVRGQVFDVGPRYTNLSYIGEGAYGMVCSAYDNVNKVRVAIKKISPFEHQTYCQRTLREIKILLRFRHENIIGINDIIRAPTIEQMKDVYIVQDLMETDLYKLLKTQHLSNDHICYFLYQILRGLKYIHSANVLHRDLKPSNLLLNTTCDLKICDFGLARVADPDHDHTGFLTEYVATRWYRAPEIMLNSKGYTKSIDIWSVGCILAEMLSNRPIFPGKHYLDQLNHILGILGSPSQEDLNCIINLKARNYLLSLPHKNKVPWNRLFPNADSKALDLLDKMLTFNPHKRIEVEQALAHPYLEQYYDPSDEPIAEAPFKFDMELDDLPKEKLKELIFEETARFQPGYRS
Method: Compounds were tested in a LanthaScreen™ time-resolved fluorescence energy transfer (TR-FRET) enzymatic assay from Invitrogen. The assay used human ERK2 (Mitogen Activated Kinase 1, Invitrogen, Cat. PV3311) recombinantly expressed as GST-tagged full-length protein purified from E. coli and activated in vitro with MAP2K1. The substrate was a recombinant truncated version (residues 19-96) of ATF2 fused with Green Fluorescent Protein (Invitrogen, Cat. PV4445). Test compounds were prepared and diluted in DMSO in 3-fold serial dilutions to 100× of the final testing concentrations. The compounds were then further diluted to 4× by the kinase reaction buffer (Invitrogen, Cat. PV3189). The enzymatic reaction for compound testing was performed in a white 384-well polypropylene plate (Packard, Cat. 6005214) with a total reaction volume of 10 μl containing 20 ng/ml ERK2, 400 nM substrate, and 5 μM ATP that is around its Km. The assay started with loading 2.5 μl of ERK2 diluted in kinase reaction buffer to wells, followed by addition of equal volume of 4× compounds for 15-min incubation at the room temperature for pre-treatment. The enzymatic reaction was initiated by addition of 5 μl of mixture of the substrate and ATP prepared in kinase reaction buffer. After one hour reaction, 10 μl mixture of EDTA (final 10 mM) and terbium-labeled anti-pATF2 (pThr71) antibody (final 2 nM) (Invitrogen, Cat. PV4451) prepared in TR-FRET antibody dilution buffer (Invitrogen, Cat. PV3574) was added to stop the enzymatic reaction and produce TR-FRET signals. After 30 minutes of incubation at room temperature, the plate was read in Tecan Infinite F200 Pro with the following settings: Excitation 340 nm (30)/Emission1 495 nm (10)/Emission2 520 nm (25). The TR-FRET values were dimensionless numbers that were calculated as the ratio of the acceptor ([…]) signal to the donor (Terbium) signal. Percent of control was calculated as the percentage of compound-treated vs 1% DMSO vehicle-treated. The dose-response curves were generated and the ICsos were calculated by nonlinear sigmoid curve fitting using GraphPad Prism.
The IC50 values of ERK2 biochemical activity for the examples disclosed herein are listed in Table 3, A: ≤10 nM; B: >10 nM and ≤50 nM; C: >50 nM and ≤100 nM; D.>100 nM.

Colo205 cell line = assay: Colo205 cell proliferation assay (MTT assay, WST-8 readout); format: cell-based; conditions: Homo sapiens; IC50 values of growth inhibition in Colo 205 cells; 72 hours
Method: Compounds disclosed herein were tested for the inhibition of ERK2 by a Colo205 cell proliferation assay commonly known as MTT assay. In this assay, a complete media was prepared by adding 10% fetal bovine serum to RPMI-1640 medium (Life technology). Colon cancer cells (Colo205 cell line) were added to each of 88 wells of a 96 well plate at a seeding density of 5,000 cells/well/90 μL. The cells were allowed to attach to the plate by incubating at 37° C. for 24 hours. The compound was dissolved in DMSO (SIGMA). A solution of test compound was prepared in complete media by serial dilution to obtain the following concentrations: 500 μM, 150 μM, 50 μM, 15 μM, 5 μM, 1.5 μM, 0.5 μM, 0.15 μM and 0.05 μM. The test compound solution (10 μL) was added to each of 80 cell-containing wells. The final concentrations of the compound were following: 50 μM, 15 μM, 5 μM, 1.5 μM, 0.5 μM, 0.15 μM, 0.05 μM, 0.015 μM and 0.005 μM. The final concentration of DMSO is 0.5%. To the 8 remaining cell-containing wells, only complete media (containing 0.5% DMSO) was added to form a control group in order to measure maximal proliferation. To the remaining 8 empty wells, complete media was added to for a vehicle control group in order to measure background. The plates were incubated at 37° C. for 72 hours. 10 μL WST-8 solution (DOJINDO, Cell Counting KIT-8) was added to each well. The plates were further incubated at 37° C. for 2 hours, and then read for the absorbance using a microplate reader at 450 nm.
The IC50 values of growth inhibition in Colo 205 cells for Compounds disclosed are listed in Table 3, A′: ≤0.5 μM; B′: >0.5 μM and ≤1 μM; C′: >1.0 μM and ≤5 uM; D′: >5 μM.

| SMILES | IC50 (human ERK2) [nM] | IC50 (Colo205 cell line) [nM] |
| --- | --- | --- |
| C[C@@H](c1cc(F)cc(Br)c1)n1ccc(-c2ccc3[nH]nc(-c4cnn(C)c4)c3c2)cc1=O (single isomer, unassigned) [Example 96A] | < 10 | 1000 to 5000 |
| C[C@H](c1cc(F)cc(Br)c1)n1ccc(-c2ccc3[nH]nc(-c4cnn(C)c4)c3c2)cc1=O (single isomer, unassigned) [Example 96B] | < 10 | ≤ 500 |
| Cc1cc(-c2n[nH]c3ccc(-c4ccn([C@H](CO)c5cccc(Cl)c5)c(=O)c4)cc23)ccn1 [Example 1, (S)-1-(1-(3-chlorophenyl)-2-hydroxyethyl)-4-(3-(2-methyl-pyridin-4-yl)-1H-indazol-5-yl)pyridin-2(1H)-one] | < 10 | ≤ 500 |
| O=c1cc(-c2ccc3[nH]nc(C4CCOCC4)c3c2)ccn1[C@H](CO)c1cccc(Cl)c1 [Example 2, (S)-1-(1-(3-chlorophenyl)-2-hydroxyethyl)-4-(3-(tetrahydro-2H-pyran-4-yl)-1H-indazol-5-yl)pyridin-2(1H)-one] | < 10 | 500 to 1000 |
| Cc1n[nH]c2ccc(-c3ccn([C@H](CO)c4cccc(Cl)c4)c(=O)c3)cc12 [Example 3, (S)-1-(1-(3-chlorophenyl)-2-hydroxyethyl)-4-(3-methyl-1H-indazol-5-yl)pyridin-2(1H)-one] | 10 to 50 | 1000 to 5000 |
| Cc1cc(-c2n[nH]c3ncc(-c4ccn([C@H](CO)c5cccc(Cl)c5)c(=O)c4)cc23)ccn1 [Example 4, (S)-1-(1-(3-chlorophenyl)-2-hydroxyethyl)-4-(3-(2-methylpyridin-4-yl)-1H-pyrazolo[3,4-b]pyridin-5-yl)pyridin-2(1H)-one] | < 10 | 500 to 1000 |
| CNc1n[nH]c2ccc(-c3ccn([C@H](CO)c4cccc(Cl)c4)c(=O)c3)cc12 [Example 5, (S)-1-(1-(3-chlorophenyl)-2-hydroxyethyl)-4-(3-(methyl-amino)-1H-indazol-5-yl)pyridin-2(1H)-one] | 10 to 50 | 1000 to 5000 |
| Cc1cc(-c2n[nH]c3ccc(-c4ccn([C@H](CO)c5cccc(Br)c5)c(=O)c4)cc23)ccn1 [Example 6, (S)-1-(1-(3-bromophenyl)-2-hydroxyethyl)-4-(3-(2-methyl-pyridin-4-yl)-1H-indazol-5-yl)pyridin-2(1H)-one] | < 10 | ≤ 500 |
| Cn1nccc1-c1n[nH]c2ccc(-c3ccn([C@H](CO)c4cccc(Cl)c4)c(=O)c3)cc12 [Example 7, (S)-1-(1-(3-chlorophenyl)-2-hydroxyethyl)-4-(3-(1-methyl-1H-pyrazol-5-yl)-1H-indazol-5-yl)pyridin-2(1H)-one] | 10 to 50 | 1000 to 5000 |
| Cc1cc(-c2n[nH]c3ccc(-c4ccn(Cc5cc(F)cc(Br)c5)c(=O)c4)cc23)ccn1 [Example 8, 1-(3-bromo-5-fluorobenzyl)-4-(3-(2-methylpyridin-4-yl)-1H-indazol-5-yl)pyridin-2(1H)-one] | < 10 | 500 to 1000 |
| Cc1cc(-c2n[nH]c3ccc(-c4ccn([C@H](CO)c5cccc(Cl)c5)c(=O)c4)nc23)ccn1 [Example 9, (S)-1-(1-(3-chlorophenyl)-2-hydroxyethyl)-4-(3-(2-methyl-pyridin-4-yl)-1H-pyrazolo[4,3-b]pyridin-5-yl)pyridin-2(1H)-one] | < 10 | 500 to 1000 |
| CC(C)Oc1cc(-c2n[nH]c3ccc(-c4ccn(Cc5cc(F)cc(Br)c5)c(=O)c4)cc23)ccn1 [Example 10, 1-(3-bromo-5-fluorobenzyl)-4-(3-(2-isopropoxypyridin-4-yl)-1H-indazol-5-yl)pyridin-2(1H)-one] | 10 to 50 | > 5000 |
| Nc1n[nH]c2ccc(-c3ccn([C@H](CO)c4cccc(Cl)c4)c(=O)c3)cc12 [Example 11, (S)-4-(3-amino-1H-indazol-5-yl)-1-(1-(3-chlorophenyl)-2-hydroxyethyl)pyridin-2(1H)-one] | 10 to 50 | > 5000 |
| Cn1nccc1Nc1n[nH]c2ccc(-c3ccn([C@H](CO)c4cccc(Cl)c4)c(=O)c3)cc12 [Example 12, (S)-1-(1-(3-chlorophenyl)-2-hydroxyethyl)-4-(3-((1-methyl-1H-pyrazol-5-yl)amino)-1H-indazol-5-yl)pyridin-2(1H)-one] | 10 to 50 | 1000 to 5000 |
| Cc1cc(-c2n[nH]c3ccc(-c4ccn([C@H](CO)c5cccc(Cl)c5)c(=O)c4)c(F)c23)ccn1 [Example 13, (S)-1-(1-(3-chlorophenyl)-2-hydroxyethyl)-4-(4-fluoro-3-(2-methylpyridin-4-yl)-1H-indazol-5-yl)pyridin-2(1H)-one] | < 10 | 500 to 1000 |
| Cc1cc(-c2n[nH]c3cc(F)c(-c4ccn([C@H](CO)c5cccc(Cl)c5)c(=O)c4)cc23)ccn1 [Example 14, (S)-1-(1-(3-chlorophenyl)-2-hydroxyethyl)-4-(6-fluoro-3-(2-methylpyridin-4-yl)-1H-indazol-5-yl)pyridin-2(1H)-one] | 10 to 50 | 1000 to 5000 |
| Cc1cc(-c2n[nH]c3ccc(-c4ccn([C@H](CO)c5ccc(Cl)c(F)c5)c(=O)c4)cc23)ccn1 [Example 15, (S)-1-(1-(4-chloro-3-fluorophenyl)-2-hydroxyethyl)-4-(3-(2-methylpyridin-4-yl)-1H-indazol-5-yl)pyridin-2(1H)-one] | < 10 | ≤ 500 |
| Cc1nn(C)cc1-c1n[nH]c2ccc(-c3ccn([C@H](CO)c4cccc(Cl)c4)c(=O)c3)cc12 [Example 16, (S)-1-(1-(3-chlorophenyl)-2-hydroxyethyl)-4-(3-(1,3-dimethyl-1H-pyrazol-4-yl)-1H-indazol-5-yl)pyridin-2(1H)-one] | < 10 | 500 to 1000 |
| CC(C)Oc1ccc(-c2n[nH]c3ccc(-c4ccn([C@H](CO)c5cccc(Cl)c5)c(=O)c4)cc23)cn1 [Example 17, (S)-1-(1-(3-chlorophenyl)-2-hydroxyethyl)-4-(3-(6-isopropoxypyridin-3-yl)-1H-indazol-5-yl)pyridin-2(1H)-one] | < 10 | 500 to 1000 |
| Cn1cc(-c2n[nH]c3ccc(-c4ccn([C@H](CO)c5cccc(Cl)c5)c(=O)c4)cc23)cn1 [Example 18, (S)-1-(1-(3-chlorophenyl)-2-hydroxyethyl)-4-(3-(1-methyl-1H-pyrazol-4-yl)-1H-indazol-5-yl)pyridin-2(1H)-one] | < 10 | ≤ 500 |
| CC(C)Oc1cc(-c2n[nH]c3ccc(-c4ccn([C@H](CO)c5cccc(Cl)c5)c(=O)c4)cc23)ccn1 [Example 19, (S)-1-(1-(3-chlorophenyl)-2-hydroxyethyl)-4-(3-(2-isopropoxypyridin-4-yl)-1H-indazol-5-yl)pyridin-2(1H)-one] | < 10 | 1000 to 5000 |
| CC(C)(O)c1ccc(-c2n[nH]c3ccc(-c4ccn([C@H](CO)c5ccc(F)c(Cl)c5)c(=O)c4)cc23)cn1 [Example 20, (S)-1-(1-(3-chloro-4-fluorophenyl)-2-hydroxyethyl)-4-(3-(6-(2-hydroxypropan-2-yl)pyridin-3-yl)-1H-indazol-5-yl)pyridin-2(1H)-one] | 10 to 50 | 1000 to 5000 |
| CC(C)(O)c1cc(-c2n[nH]c3ccc(-c4ccn([C@H](CO)c5ccc(F)c(Cl)c5)c(=O)c4)cc23)ccn1 [Example 21] | < 10 | 1000 to 5000 |
